Source: patent US12673918B2, “Small molecule RPN13 inhibitors with antitumor properties” (The Johns Hopkins University, priority 2019, dated 2026)

Experiments:
VU147T = experiment: MTT cytotoxicity assay, VU147T; format: cell-based; settings: Table 3, 48 hr, Head & Neck (HPV +ve)
Protocol: (§1) Cell lines and cytotoxicity assays: All cell lines were obtained from the American Type Culture Collection (ATCC) and cultured in the specified medium supplemented with 10% fetal bovine serum, 100 IU/mL penicillin, and 100 μg/mL streptomycin at 37° C. in a humidified 5% CO2/95% air incubator. […] To assess drug cytotoxicity, cells were seeded at 2,500 cells/well (10,000 cells/well for MM lines) in 100 μL medium in 96-well plate and after 24 treated with compounds for 72 h, incubated according to the manufacturer's protocol with the Thiazolyl Blue Tetrazolium Bromide (Sigma, M2128) and A570 measured using a Benchmark Plus microplate spectrophotometer (BIO-RAD). IC50 data was analyzed by Graphpad Prism software.

SSC25 = experiment: MTT cytotoxicity assay, SSC25; format: cell-based; settings: Table 3, 48 hr, Head & Neck (HPV −ve)
Protocol: as §1

[1] = test system: proteasome (4UbFL reporter); experiment: 4UbFL reporter in leg muscle of BALB/c mice; format: in vivo; settings: single i.p. administration to mice
Protocol: FIG. 9B illustrates BALB/c mice electroporated with 4UbFL plasmid (10 μg/mouse) in the leg muscle and the basal luminescence was recorded after 48 hr. Groups of mice (n=5) were treated with different compound (40 mg/Kg) or vehicle alone (25% (w/v) β-Hydroxypropylcyclodextrin in water). Mice were imaged for bioluminiscence activity using IVIS instrument at 4, 24, 48, 72 and 96 hr.
To test for proteasome inhibition by RA375 in vivo, an electroporation delivery was employed to transfect the leg muscle of mice with the 4UbFL reporter plasmid. […] At two days post electroporation of the 4UbFL DNA, mice were imaged, and base line luminescence recorded. […] After 4 h, 24 h, 48 h, 72 h and 96 h post treatment mice were again imaged, and bioluminescence was quantified.
Electroporation Method: A patch of CD1 or Balb/c mouse leg was shaved of hair and 10 μg 4Ub-FL plasmid in 20 μL of PBS was injected into the quadriceps femoralis muscle followed immediately by injection of the 2 Needle Array to 5 mm depth encompassing the injection site and square wave electroporation (ElectroSquarePorator 833, BTX-2 Needle array 5 mm gap, Harvard apparatus) delivered as eight pulses at 106V for 20 ms with 200 ms intervals. […] Equally sized areas were analyzed using Living Image 2.20 software. […]

[2] = Initial toxicity testing in female Balb/c mice; format: in vivo
Protocol: Initial toxicity testing was performed in female Balb/c mice with RA375. Groups of mice (n=3) were injected intra peritoneally (i.p.) with a single dose of RA375 (5, 10, 20, 40, 60, 100 mg/Kg in 25% β-hydroxypropyl cyclodextrin) and endpoints evaluated included clinical observation and body weight for one week.

C33A = experiment: MTT cytotoxicity assay, C33A; format: cell-based; settings: Homo sapiens, C-33-A, Table 3, 48 hr, Cervical (HPV −ve)
Protocol: The cytotoxic efficacy of selected compounds was assessed against multiple myeloma (MM) cell lines, as this is a validated clinical target for the licensed proteasome inhibitors.
Cell lines and cytotoxicity assays: All cell lines were obtained from the American Type Culture Collection (ATCC) and cultured in the specified medium supplemented with 10% fetal bovine serum, 100 IU/mL penicillin, and 100 μg/mL streptomycin at 37° C. in a humidified 5% CO2/95% air incubator. […] To assess drug cytotoxicity, cells were seeded at 2,500 cells/well (10,000 cells/well for MM lines) in 100 μL medium in 96-well plate and after 24 treated with compounds for 72 h, incubated according to the manufacturer's protocol with the Thiazolyl Blue Tetrazolium Bromide (Sigma, M2128) and A570 measured using a Benchmark Plus microplate spectrophotometer (BIO-RAD). IC50 data was analyzed by Graphpad Prism software. In the chirality studies the cells were treated with compounds for 48 h, and the cells were incubated and measured via the preceeding protocols.

ID8-vegf = settings: mouse
C2KmFvB1 = experiment: MTT cytotoxicity assay, C2KmFvB1; settings: read-out: cytotoxicity IC50 C2KmFvB1, Tables 3A/4B/4C, BRCA2 + Ve
in vivo = format: in vivo, C57BL/6 mice; settings: female, C57BL/6, mouse, in vivo; suggested from toxicities at higher dose; read-out: MTD in tumor-bearing animals
Protocol: To assess therapeutic efficacy the ID8-VegfDefb29 cell line was utilized in a syngeneic mouse model of ovarian cancer expressing luciferase (62). ID8 was first derived from spontaneous malignant transformation of C57BL/6 mouse ovarian surface epithelial cells in vitro (69). ID8-Vegf Defb29 cells represent a more aggressive variant of ovarian cancer in which VEGF provides vascular growth which is augmented by the presence of DEFB29 (62). C57BL/6 mice were injected i.p. with ID8-VegfDefb29 cells stably expressing firefly luciferase (0.5×10^6 cells) in PBS (100 μL). After 72 hrs, mice were imaged for their basal luminescence levels using an IVIS200 imager. Mice with visible luminescence were randomized into equal groups including vehicle (n=8), RA414 (3 mg/Kg, n=8), RA414 (10 mg/Kg, n=8) and treated every three days for up to 3 weeks. Mice were imaged every week to measure bioluminescence expressed by tumor after administration of luciferin. […] On day 24 two mice were sacrificed after collection of ascites, and the remainder required euthanasia on day 31 (FIGS. 17A and 17B). Administration of RA414 at 10 mg/kg (3 doses delivered every three days) regressed the tumor completely in 50% of the mice with less than 10% weight loss. […] This is consistent with proteasome inhibition within the ascites cells by the […] RA414 treatment regimen.
Tumor Studies: Female C57BL6 or Nude mice were inoculated with 10^6 ES2-Luciferase cells i.p. in 100 uL PBC, or ID8-VegfDefb29 syngeneic mouse model of ovarian cancer expressing luciferase (62) i.p. in 100 μL PBS. At day 3, mice were imaged for basal level luminescence activity with a Xenogen IVIS 200 after injection i.p. with luciferin (0.3 mg in 100 water). Mice were randomized into two groups (n=8) and treated i.p. with compounds or vehicle (25% (w/v) β-Hydroxypropylcyclodextrin in water), and imaged again on days 7 and 14. RA375 was administered i.p. at 10 mg/Kg.

[3] = PEG400: Cremophor: Tween40 vs b-HPCD
ES2 cells = experiment: Annexin V apoptosis flow cytometry, ES2 cells; format: cell-based, human; settings: ES2, 12 hr
Protocol: FIG. 7D illustrates surface PS staining of 10^5 ES2 cells treated with compounds for 12 hr and re-suspended in binding buffer and labeled with Annexin V-PE and 7-AAD at RT for 15 min and analyzed by flow cytometry (Becton Dickinson, Mountain View, CA).
FIG. 16D illustrates ES2 cells were treated with compounds at indicated doses for 12 hr then re-suspended in 100 μL binding buffer with 5 μL of Annexin V-PE and 5 μL of 7-AAD to examine early apoptosis. After a 15 min incubation at RT, the cells were analyzed by flow cytometry using a FACSCalibur and CellQuest software.

NF-κB = NF-κB dependent luciferase reporter in 293T cells; format: cell-based; settings: 293T NF-κB luciferase, drug treatment 7 hr
Excerpt: FIG. 21C illustrates 293T cells stably expressing NF-κB dependent luciferase gene that show a dose dependent reduction in bioluminescence with drug treatment (7 hr) measured by luminometer.
Activation of NF-κB is regulated by IκB proteins. IκB-α ubiquitination and degradation is an important step for the nuclear localization of NF-kB and activation of its transcriptional program.

OVCAR3 = settings: human

O=C(CCl)N[C@@H](Cc1ccccc1)C(=O)N1C/C(=C\c2ccc([N+](=O)[O-])cc2)C(=O)/C(=C/c2ccc([N+](=O)[O-])cc2)C1 [RA375]
IC50 (VU147T): 40 nM | IC50 (SSC25): 189 nM | duration of proteasome inhibition in muscle [1]: > 72 h | toxicity after repeated dosing ([2]; 40 mg/Kg on alternate days for two weeks): no observable toxicities or weight loss | adverse effects after single dose ([2]; female Balb/c, single i.p. dose 5-100 mg/Kg, one week observation): No adverse effects were noted | IC50 (C33A): 167 nM | IC50 (ID8-vegf): 44 nM

N[C@@H](Cc1ccccc1)C(=O)N1C/C(=C\c2ccc(Cl)c(Cl)c2)C(=O)/C(=C/c2ccc(Cl)c(Cl)c2)C1 [RA190, reference compound]
IC50 (C2KmFvB1): 436 nM

CC1/C(=C\c2ccc([N+](=O)[O-])cc2)C(=O)/C(=C/c2ccc([N+](=O)[O-])cc2)CN1C(=O)[C@H](Cc1ccccc1)NC(=O)CCl (stereo partly shown) [RA414]
MTD (in vivo): 3 mg/kg | solubility in formulation vehicles [3]: soluble in the PEG system only

C[C@H]1/C(=C\c2ccc([N+](=O)[O-])cc2)C(=O)/C(=C/c2ccc([N+](=O)[O-])cc2)CN1C(=O)[C@@H](N)Cc1ccccc1
surface display of Annexin V versus RA183 (ES2 cells): more potently activated a biomarker of early apoptosis | decrease in NF-κB activity, relative potency (NF-κB): more potent than for RA183 | IC50 (OVCAR3): 69 nM
